Laboratory results from US20250186321A1, “FORMULATION USING AMINO ACID AND CARBOXYLIC ACID, ORGANIC SALT, AND COMPOSITION COMPRISING SAME AND USE THEREOF” (MIYOSHI OIL & FAT CO., LTD., priority 2021, published 2025).

Assay: Appearance of formulation (state at 25° C.)
Assay type: physicochemical
Procedure: Formulations 1 to 427 shown in Tables 1A to 1D were prepared by the above-described method using the components (A) and (B) at the compounding molar ratios shown in the tables, and their states at 25° C. were observed.

[1] = Tables 1C-1 to 1D, compounding molar ratio (Component (A):Component (B)) 1:1
[2] = 25° C., components (A) and (B) at the compounding molar ratio shown

state at 25° C. [1]	Compound	state at 25° C. [2]	also measured
	CC(C)C[C@H](N)C(=O)O.CCCC(=O)O [Formulation 208]	Solid	
	CCCCCC(=O)O.CCCCCC(=O)O.N=C(N)NCCC[C@H](N)C(=O)O [Formulation 67]	Solid	
	CC(O)C(=O)O.C[C@@H](O)[C@H](N)C(=O)O [Formulation 261]	Solid	
	N=C(N)NCCCC(N)C(=O)O.O=CO.O=CO (stereo not drawn) [Formulation 64]	Solid	
Solid	N[C@@H](Cc1ccccc1)C(=O)O.O=CO [Formulation 360]		
	NCCCC[C@H](N)C(=O)O.O=C(O)/C=C/C(=O)O [Formulation 14]	Liquid	
	CCC(=O)O.NCCCC(=O)O [Formulation 169]	Solid	
Solid	CCCC(=O)O.O=C(O)[C@@H]1CCCN1 [Formulation 344]		
	CCCCCC(=O)O.CCCCCC(=O)O.N[C@@H](Cc1cnc[nH]1)C(=O)O [Formulation 109]	Solid	
Solid	N[C@@H](CS)C(=O)O.O=C(O)[C@H](O)[C@@H](O)[C@H](O)[C@H](O)CO [Formulation 311]		
	N[C@@H](Cc1cnc[nH]1)C(=O)O.O=C(O)CCCCC(=O)O.O=C(O)CCCCC(=O)O [Formulation 116]	Solid	
	CCCCCC(=O)O.CCCCCC(=O)O.NCCCC[C@H](N)C(=O)O [Formulation 25]	Solid	
	NCCCC[C@H](N)C(=O)O.O=C(O)c1ccccc1.O=C(O)c1ccccc1 [Formulation 39]	Solid	
	CC(=O)O.CC(C)C[C@H](N)C(=O)O [Formulation 205]	Solid	
	CC(=O)O.CC(C)[C@H](N)C(=O)O [Formulation 188]	Solid	
	CCC(=O)O.N[C@@H](CO)C(=O)O [Formulation 240]	Solid	
	N=C(N)NCCC[C@H](N)C(=O)O.O=C(O)CCC(=O)O.O=C(O)CCC(=O)O [Formulation 75]	Solid	
	C[C@H](N)C(=O)O.O=C(O)C[C@H](O)C(=O)O [Formulation 161]	Solid	
Solid	CSCC[C@H](N)C(=O)O.O=C(O)[C@H](O)[C@@H](O)[C@H](O)[C@H](O)CO [Formulation 328]		
	CC(C)C[C@H](N)C(=O)O.CCC(=O)O [Formulation 206]	Solid	
	CC(=O)O.N=C(N)NCCC[C@H](N)C(=O)O [Formulation 44]	Solid	
	CC[C@H](C)[C@H](N)C(=O)O.O=C(O)[C@H](O)[C@@H](O)[C@H](O)[C@H](O)CO [Formulation 226]	Solid	
	CC(C)C[C@H](N)C(=O)O.O=C(O)/C=C/C(=O)O [Formulation 214]	Solid	
	CC(C)C[C@H](N)C(=O)O.N[C@@H](CCC(=O)O)C(=O)O [Formulation 213]	Solid	
	NCCCC(=O)O.O=CO [Formulation 167]	Solid	

state at 25° C. [1]	Compound	state at 25° C. [2]	also measured
	CCCC(=O)O.CC[C@H](C)[C@H](N)C(=O)O [Formulation 225]	Solid	
	NCCCC(=O)O.O=C1O[C@H]([C@H](O)CO)C(O)=C1O [Formulation 186]	Solid	
	CCCCCCCC/C=C\CCCCCCCC(=O)O.N[C@@H](Cc1c[nH]cn1)C(=O)O [Formulation 91]	Solid	
	CC(C)C[C@H](N)C(=O)O.O=C(O)C[C@H](O)C(=O)O [Formulation 215]	Solid	
	CC(=O)O.NCC(=O)O [Formulation 128]	Solid	
Salid	N[C@@H](Cc1ccccc1)C(=O)O.O=C(O)C[C@H](O)C(=O)O [Formulation 371]		
Solid	N[C@@H](Cc1ccccc1)C(=O)O.O=C(O)/C=C/C(=O)O [Formulation 370]		
Solid	CCCCCC(=O)O.N[C@@H](Cc1ccccc1)C(=O)O [Formulation 363]		
	C[C@@H](O)[C@H](N)C(=O)O.O=C(O)C(O)C(O)C(=O)O (stereo not drawn) [Formulation 268]	Solid	
	NCCCC[C@H](N)C(=O)O.O=C(O)/C=C/C(=O)O.O=C(O)/C=C/C(=O)O [Formulation 35]	Solid	
	CC(C)[C@H](N)C(=O)O.CCC(=O)O [Formulation 189]	Solid	
	N[C@@H](Cc1c[nH]cn1)C(=O)O.O=CO [Formulation 85]	Solid	
	N=C(N)NCCC[C@H](N)C(=O)O.O=C1O[C@H]([C@@H](O)CO)C(O)=C1O.O=C1O[C@H]([C@@H](O)CO)C(O)=C1O [Formulation 83]	Solid	
	NCCCC[C@H](N)C(=O)O.O=CO [Formulation 1]	Solid	
	CCCCCCCC/C=C\CCCCCCCC(=O)O.CCCCCCCC/C=C\CCCCCCCC(=O)O.NCCCC[C@H](N)C(=O)O [Formulation 28]	Solid	
	C[C@@H](O)[C@H](N)C(=O)O.O=C1O[C@H]([C@H](O)CO)C(O)=C1O [Formulation 271]	Solid	
Solid	N[C@@H](CS)C(=O)O.O=C1O[C@H]([C@@H](O)CO)C(O)=C1O [Formulation 321]		
Solid	CC(=O)O.CSCC[C@H](N)C(=O)O [Formulation 324]		
Solid	N[C@@H](CS)C(=O)O.O=C(O)C[C@H](O)C(=O)O [Formulation 317]		
	CC(C)C[C@H](N)C(=O)O.O=C(O)C(O)C(O)C(=O)O (stereo not drawn) [Formulation 217]	Solid	
	N[C@@H](Cc1cnc[nH]1)C(=O)O.O=C(O)C[C@H](O)C(=O)O [Formulation 99]	Solid	
	CC(C)[C@H](N)C(=O)O.O=C(O)CCC(=O)O [Formulation 195]	Solid	
	NCCCC[C@H](N)C(=O)O.O=C(O)CCC(=O)O [Formulation 12]	Solid	
	N=C(N)NCCC[C@H](N)C(=O)O.O=CO [Formulation 43]	Solid	
Solid	CCCCCC(=O)O.CSCC[C@H](N)C(=O)O [Formulation 326]		

state at 25° C. [1]	Compound	state at 25° C. [2]	also measured
	CCCCCC(=O)O.N[C@@H](CO)C(=O)O [Formulation 241]	Solid	
	NCCCC[C@H](N)C(=O)O.O=C(O)C[C@H](O)C(=O)O [Formulation 15]	Solid	
	NCC(=O)O.O=C(O)c1ccccc1 [Formulation 144]	Solid	
	C[C@H](N)C(=O)O.O=C(O)CCC(=O)O [Formulation 158]	Solid	
Solid	CCC(=O)O.N[C@@H](CC(=O)O)C(=O)O [Formulation 396]		
	CC(=O)O.CC[C@H](C)[C@H](N)C(=O)O [Formulation 222]	Solid	
	CCCCC/C=C\C/C=C\CCCCCCCC(=O)O.NCCCC[C@H](N)C(=O)O [Formulation 8]	Solid	
Solid	CSCC[C@H](N)C(=O)O.O=C1O[C@H]([C@@H](O)CO)C(O)=C1O [Formulation 338]		
Solid	CC(O)C(=O)O.N[C@@H](CC(=O)O)C(=O)O [Formulation 400]		
	CC(C)[C@H](N)C(=O)O.N[C@@H](CCC(=O)O)C(=O)O [Formulation 196]	Solid	
Solid	N[C@@H](Cc1ccccc1)C(=O)O.O=C1O[C@H]([C@H](O)CO)C(O)=C1O [Formulation 375]		
	NCCCC[C@H](N)C(=O)O.O=C(O)/C=C/c1ccccc1 [Formulation 19]	Solid	
	C[C@H](N)C(=O)O.O=C(O)CC(O)(CC(=O)O)C(=O)O [Formulation 162]	Solid	
	CCC(=O)O.C[C@@H](O)[C@H](N)C(=O)O [Formulation 257]	Solid	
	CC[C@H](C)[C@H](N)C(=O)O.O=CO [Formulation 221]	Solid	
	N[C@@H](CCC(=O)O)C(=O)O.N[C@@H](Cc1c[nH]cn1)C(=O)O [Formulation 97]	Solid	
	NCCCC[C@H](N)C(=O)O.N[C@@H](CCC(=O)O)C(=O)O [Formulation 13]	Solid	
Solid	N[C@@H](CC(=O)O)C(=O)O.O=C(O)CC(O)(CC(=O)O)C(=O)O [Formulation 406]		
	CC(C)[C@H](N)C(=O)O.O=CO [Formulation 187]	Solid	
	N=C(N)NCCC[C@H](N)C(=O)O.O=C(O)/C=C/c1ccccc1 [Formulation 61]	Solid	
	CC(O)C(=O)O.C[C@H](N)C(=O)O (stereo not drawn) [Formulation 156]	Solid	
	CC(=O)O.C[C@@H](O)[C@H](N)C(=O)O [Formulation 256]	Solid	
	O [Formulation 438]		state at 25° C. (25° C.): Liquid

Compound	state at 25° C. [1]	state at 25° C. [2]	also measured
N[C@@H](Cc1c[nH]c2ccccc12)C(=O)O.O=C(O)CC(O)(CC(=O)O)C(=O)O [Formulation 389]	Solid		
N[C@@H](CS)C(=O)O.O=C(O)c1ccccc1 [Formulation 320]	Solid		
CC(=O)O.N[C@@H](Cc1c[nH]c2ccccc12)C(=O)O [Formulation 378]	Solid		
N[C@@H](CCC(=O)O)C(=O)O.N[C@@H](Cc1ccccc1)C(=O)O [Formulation 369]	Solid		
N[C@@H](Cc1c[nH]c2ccccc12)C(=O)O.O=C(O)/C=C/C(=O)O [Formulation 387]	Solid		
N[C@@H](Cc1c[nH]c2ccccc12)C(=O)O.O=C1O[C@H]([C@@H](O)CO)C(O)=C1O [Formulation 392]	Solid		
CCC(=O)O.N[C@@H](Cc1c[nH]c2ccccc12)C(=O)O [Formulation 379]	Solid		
CCCCCC(=O)O.N[C@@H](Cc1c[nH]c2ccccc12)C(=O)O [Formulation 380]	Solid		
N[C@@H](CCC(=O)O)C(=O)O.N[C@@H](CS)C(=O)O [Formulation 315]	Solid		
CC(O)C(=O)O.N[C@@H](CCC(=O)O)C(=O)O [Formulation 417]	Solid		
N[C@@H](CCC(=O)O)C(=O)O.N[C@@H](Cc1c[nH]c2ccccc12)C(=O)O [Formulation 386]	Solid		
